These results are taken from patent US12194034B2, “Neutrophil exocytosis inhibitors” (IMMUNYX PHARMA LTD., priority 2021, dated 2025).

Experiment [1] deals with human neutrophils. The following applies: by inhibiting NAD(P)H; cited from earlier work.
Experiment [2] deals with human neutrophils. The settings on record: cited from earlier work.
In experiment [3] the test system is human neutrophils. Put plainly: NETosis assay. The experiment is classed as cell-based. The following applies: PMA 50 nM; for PMA-induced NETosis (NETosis positive events over time): T1/T3 10 μM, Trifluoperazine 100 ng/ml, Incucyte, 8 hr. The method, then: NETosis assay: The assay was carried out as previously described (Gupta et al., “A High-Throughput Real-Time Imaging Technique To Quantify NETosis and Distinguish Mechanisms of Cell Death in Human Neutrophils.”, J Immunol. 2018; 200:869-879, herein incorporated by reference in its entirety). Briefly, human neutrophils (2×10^6 cells/mL) were incubated for 5 minutes in the dark at RT with the NUCLEAR-ID Red DNA dye to stain nuclei (Enzo Life Sciences, Inc.). Cells were washed twice and resuspended in 1 mL of RPMI media. NUCLEAR-ID Red stained-neutrophils were plated (20,000 neutrophils per 100 μL per well) in a 96-well flat microplate. Stimulation of neutrophils NETosis was performed with PMA alone (50 nM), or with PMA in the presence of T1 compound (10 μM) or T3 compound (10 μuM). Unstimulated neutrophils served as a negative control. Neutrophils stimulated with PMA in the presence of Trifluoperazine (Stelazine, 100 ng/ml) were used as positive control. A final concentration of 0.1 μM of the membrane impermeable dsDNA fluorescent Sytox® Green nucleic acid stain (Life Technologies, Inc.) was added to the plated cells concomitantly with the stimuli. Neutrophils were imaged within 10 minutes of plating using phase contrast, red (800 ms exposure) and green (400 ms exposure) channels in the IncuCyte ZOOM™ platform (Essen BioScience, Inc.), located within a cell incubator at 37° C. with 5% CO2. Four image sets from distinct regions per well using a 20x dry objective lens were taken every 20-30 minutes, for 8 hr. For red channel, filters were applied to exclude objects below radius of 10 μm, fluorescence threshold of 0.5 red corrected units, and area of 15 μm^2. The filters applied the green channel excluded objects below the radius of 10 μm, fluorescence threshold of 1.00 green corrected units, and area of 100 μm^2. The green object count divided by the red object count represents the percentage of cells going through NETosis of total neutrophils. Liposome preparation: 2.5% DSPE-PEG3400-Maleimide liposomes were prepared in 250 mM ammonium sulfate. Liposomes were prepared at a molar ration of 56.5:41: 2.5:0.09 of HSPC: Cholesterol: DSPE-PEG-Mal: DilC18 (5)-DS.
Besides degranulation, neutrophils can kill pathogens extracellularly by releasing neutrophil extracellular traps (NETs), a process known as NETosis. Examination of NETosis induced by PMA was monitored by an Incucyte live-cell analysis system (FIG. 4). PMA treatment produced a steady increase in NETosis positive events starting at 2 hours after treatment. […] An increase was only observed after 4 hours when T1 was used and after 5 hours when T3 was used.

The next experiment concerns DSS colitis model mice. Put plainly: DSS colitis mouse model. The experiment is classed as in vivo, C57BL/6 mice. The settings on record: 3% DSS 5 days; 2.5 mg/kg of T3 on days 5, 7 and 9. The method, then:
Next, the ability of T3 administration, to treat colitis, a disease caused at least in part by neutrophil cytotoxicity, was tested in a mouse model. Colitis was induced in C57BL/6 mice by administration of 3% dextran sulfate sodium (DSS) for 5 consecutive days in drinking water. 2.5 mg/kg of T3, in its three formulations, was administered on days 5, 7 and 9. Colitis induction by DSS caused a pronounced shortening of the mouse colon.
Lower doses of TENN-T3 were also tested. The targeted liposomes were administered at days 5 and 7 and mice were sacrificed on day 10 and colon length was measured.

The test system of experiment [4] is peripheral blood neutrophils. Put plainly: LPS-induced inflammation mouse model, surface CD11b of peripheral blood neutrophils. Format: in vivo, Balb/C mice. The settings on record: LPS 1 mg/kg intraperitoneal; T3 (Z isomer) 3 mg/kg IV after 1 hour; blood after 3 hours. The method, then: The in-vivo effect of the three compositions of T3 was examined in a mouse model of inflammation. Balb/C mice were intraperitoneal injected with 1 mg/kg of LPS to induce inflammation and neutrophil toxicity. After 1 hour, T3—free molecule, T3 within a liposome, and T3 within a targeted liposome (TENN-T3) were IV administered at a final concentration of 3 mg/kg body weight. After 3 hours 0.5 mL of blood was drawn from each mouse and degranulation of peripheral blood neutrophils was evaluated by flow cytometry analysis of surface CD11b levels (neutrophils were identified by Ly6G staining). […] Overall, it is clear that T3 inhibits neutrophil activation in vivo and that targeting greatly enhances the effect.

The test system of experiment [5] is human neutrophils. The settings on record: cited from earlier work. This is another data set of the same source.

For the compound `c1ccc2c(c1)[I+]c1ccccc1-2` [DPI, Diphenylenciodonium], the “ROS production (known effect)” value with human neutrophils [1] is “nearly completely abolish ROS production”.

As to `CC(C)(C)C(=O)/C(=C/c1cccc([N+](=O)[O-])c1)n1cncn1` [Nexinhib-20], the “inhibition of degranulation (known)” value with human neutrophils [2] is given as “known to inhibit degranulation”.

On to `CCN(CC)CCC(C)(C)C(=O)/C(=C/c1cccc([N+](=O)[O-])c1)n1cncn1` [T1], for which, in the experiment on human neutrophils [3] (compound 10 μM), the “time after which an increase in NETosis was observed” value is more than 4 h. Also, the “PMA-induced NETosis (NETosis positive events over time)” value in the experiment with human neutrophils [3] is “initially inhibited an increase in NETosis completely”.

Turning to `CN1CCC(N2CCC(C(=O)/C(=C/c3cccc([N+](=O)[O-])c3)n3cncn3)CC2)CC1` [T3], the colon length result in the experiment with DSS colitis model mice is listed as “comparable to a negative control”. In addition, in the experiment on human neutrophils [3] (compound 10 μM), the “NETosis events compared with control” value is listed as “very similar to control” and the “time after which an increase in NETosis was observed” value was more than 5 h. In addition, in the experiment with human neutrophils [3], the “PMA-induced NETosis (NETosis positive events over time)” value is “initially inhibited an increase in NETosis completely”. Further, the “reduction in degranulation (surface CD11b of blood neutrophils)” value in experiment [4] is recorded as “moderate but not statistically significant reduction”.

For `CN1CCN(CCCN2c3ccccc3Sc3ccc(C(F)(F)F)cc32)CC1` [Trifluoperazine, reference compound], the “PMA-induced NETosis (NETosis positive events over time)” value with human neutrophils [3] was “steady reduction”. The “inhibition of NETosis (known)” value in the experiment on human neutrophils [5] is listed as “known inhibitor of NETosis”.
